Source: patent publication US20240116985A1, “STAPLED PEPTIDES AND METHODS THEREOF” (priority 2020, published 2024)
Like-named read-outs stand apart in the source and are kept apart here.

Key:
[1] = target: T1, full-length beta-Catenin (Uniprot ID P35222) (Homo sapiens, UniProt P35222); assay: Fluorescence polarization IC50 (beta-catenin / 5FAM-TCF4 10-53 competition); format: binding
T1 construct: 10 nM full-length beta-Catenin (Uniprot ID P35222)
T1 sequence (P35222 1-781): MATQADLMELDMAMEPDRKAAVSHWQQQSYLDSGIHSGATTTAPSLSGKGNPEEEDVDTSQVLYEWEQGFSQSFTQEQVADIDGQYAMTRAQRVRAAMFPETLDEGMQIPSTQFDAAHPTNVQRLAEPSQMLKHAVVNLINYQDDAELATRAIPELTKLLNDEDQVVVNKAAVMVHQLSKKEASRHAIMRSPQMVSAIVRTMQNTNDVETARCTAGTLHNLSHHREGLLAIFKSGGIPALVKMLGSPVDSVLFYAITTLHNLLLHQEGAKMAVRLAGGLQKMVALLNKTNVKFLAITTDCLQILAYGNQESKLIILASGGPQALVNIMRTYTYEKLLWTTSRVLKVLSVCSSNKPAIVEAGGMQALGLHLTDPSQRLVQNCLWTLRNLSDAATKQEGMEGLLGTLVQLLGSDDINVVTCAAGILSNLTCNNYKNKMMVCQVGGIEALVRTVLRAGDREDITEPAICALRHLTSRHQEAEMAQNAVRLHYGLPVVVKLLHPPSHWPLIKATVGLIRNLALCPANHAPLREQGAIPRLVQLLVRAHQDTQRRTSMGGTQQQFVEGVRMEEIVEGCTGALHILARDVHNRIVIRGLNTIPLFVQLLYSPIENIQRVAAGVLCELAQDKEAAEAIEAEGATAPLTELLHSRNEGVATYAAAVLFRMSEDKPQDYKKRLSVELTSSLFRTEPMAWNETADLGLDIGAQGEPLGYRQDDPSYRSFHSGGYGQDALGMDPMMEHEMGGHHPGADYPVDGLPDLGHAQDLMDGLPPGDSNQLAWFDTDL

CHI Log D procedure = format: physicochemical; details: for CHI Log D: pH 7.4; for chromatographic logD: pH 7.4, CHI Log D
[2] = fluorescence polarization, read-out: beta-Catenin FP IC50

| IC50 [1, 2] [nM] | IC50 ([1]; read-out: FP EC50) [nM] | CHI Log D (CHI Log D procedure) | chromatographic logD (CHI Log D procedure) | Compound |
| --- | --- | --- | --- | --- |
| 57 | 57 | 1.831 | – | CC(=O)N1CCC[C@]12CC=CCCCC1(CCCC=CCCCCOC(=O)N3CC[C@@](C(=O)N[C@@H](Cc4ccccc4)C(=O)N[C@@H](Cc4csc5ccccc45)C(=O)N[C@@H](CCC(N)=O)C(N)=O)(C3)NC(=O)[C@H](CC(N)=O)NC(=O)[C@H](Cc3ccccc3)NC(=O)[C@H](C)NC(=O)[C@H](C)NC(=O)[C@H](CCC(=O)O)NC(=O)[C@H](CC(=O)O)NC1=O)NC(=O)[C@H](C)NC(=O)[C@H](CC(=O)O)NC2=O (stereo partly drawn) [I-464, Ac-PL3-Asp-Ala-B5-Asp-Glu-Ala-Ala-Phe-Asn-PyrS3-Phe-BztA-Gln-NH2] |
| 27 | 27 | 2.354 | – | CC[C@H](C)[C@@H]1NC(=O)[C@H](CC(=O)O)NC(=O)[C@]2(CC=CCCCC3(CCCC=CCCCCCC[C@@](C)(C(=O)N[C@@H](Cc4ccccc4)C(=O)N[C@@H](Cc4csc5ccccc45)C(=O)N[C@@H](Cc4c[nH]cn4)C(N)=O)NC(=O)[C@H](CC(N)=O)NC(=O)[C@H](Cc4ccccc4)NC(=O)[C@H](C)NC(=O)[C@H](C)NC(=O)[C@H](CC(=O)O)NC(=O)[C@H](CC(=O)O)NC3=O)NC1=O)CCCN2C(C)=O (stereo partly drawn) [I-469, Ac-PL3-Asp-Ile-B5-Asp-Asp-Ala-Ala-Phe-Asn-S8-Phe-BztA-His-NH2] |
| 118 | – | – | 2.48 | CC[C@H](C)[C@@H]1NC(=O)[C@H](CC(=O)O)NC(=O)[C@]2(CC=CCCCC3(CCCC=CCCCCCC[C@@](C)(C(=O)N[C@@H](Cc4ccccc4)C(=O)N[C@@H](Cc4csc5ccccc45)C(=O)N[C@@H](CCN)C(N)=O)NC(=O)[C@H](CCC(N)=O)NC(=O)[C@H](Cc4ccccc4)NC(=O)[C@H](C)NC(=O)[C@H](C)NC(=O)[C@H](CC(=O)O)NC(=O)[C@H](CC(=O)O)NC3=O)NC1=O)CCCN2C(C)=O (stereo partly drawn) [I-482, Ac-PL3-Asp-Ile-B5-Asp-Asp-Ala-Ala-Phe-Gln-S8-Phe-BztA-Dab-NH2] |
| 181 | – | – | 2.35 | CC[C@H](C)[C@@H]1NC(=O)[C@H](CC(=O)O)NC(=O)[C@]2(CC=CCCCC3(CCCC=CCCCCCC[C@@](C)(C(=O)N[C@@H](Cc4ccccc4)C(=O)N[C@@H](Cc4csc5ccccc45)C(=O)N[C@@H](CC(N)=O)C(N)=O)NC(=O)[C@H](CCC(N)=O)NC(=O)[C@H](Cc4ccccc4)NC(=O)[C@H](C)NC(=O)[C@H](C)NC(=O)[C@H](CCC(=O)O)NC(=O)[C@H](CC(=O)O)NC3=O)NC1=O)CCCN2C(C)=O (stereo partly drawn) [I-495, Ac-PL3-Asp-Ile-B5-Asp-Glu-Ala-Ala-Phe-Gln-S8-Phe-BztA-Asn-NH2] |
| 196 | 196 | 2.019 | – | COc1ccccc1C[C@H](NC(=O)[C@]1(C)CCCCCCC=CCCCC2(CCCC=CC[C@]3(CCCN3C(C)=O)C(=O)N[C@@H](CC(=O)O)C(=O)N[C@@H](C)C(=O)N2)C(=O)N[C@@H](CC(=O)O)C(=O)N[C@@H](CCC(=O)O)C(=O)N[C@@H](C)C(=O)N[C@@H](C)C(=O)N[C@@H](Cc2ccccc2)C(=O)N[C@@H](CCC(N)=O)C(=O)N1)C(=O)N[C@@H](Cc1csc2ccccc12)C(=O)N[C@@H](CCC(N)=O)C(N)=O (stereo partly drawn) [I-525, Ac-PL3-Asp-Ala-B5-Asp-Glu-Ala-Ala-Phe-Gln-S8-2OMeF-BztA-Gln-NH2] |
| 56 | 56 | 2.049 | – | COc1ccccc1C[C@H](NC(=O)[C@]1(C)CCCCCCC=CCCCC2(CCCC=CC[C@]3(CCCN3C(C)=O)C(=O)N[C@@H](CC(=O)O)C(=O)N[C@@H](C)C(=O)N2)C(=O)N[C@@H](CC(=O)O)C(=O)N[C@@H](CCC(=O)O)C(=O)N[C@@H](C)C(=O)N[C@@H](C)C(=O)N[C@@H](Cc2ccccc2)C(=O)N[C@@H](CCC(N)=O)C(=O)N1)C(=O)N[C@@H](Cc1csc2ccccc12)C(=O)N[C@@H](CCC(N)=O)C(N)=O (stereo partly drawn) [I-526, Ac-PL3-Asp-Ala-B5-Asp-Glu-Ala-Ala-Phe-Gln-S8-2OMeF-BztA-Gln-NH2] |
| 98 | 98 | 2.376 | – | CC[C@H](C)[C@@H]1NC(=O)[C@H](CC(=O)O)NC(=O)[C@]2(CC=CCCCC3(CCCC=CCCCCCC[C@@](C)(C(=O)N[C@@H](Cc4ccccc4OC)C(=O)N[C@@H](Cc4csc5ccccc45)C(=O)N[C@@H](CCC(N)=O)C(N)=O)NC(=O)[C@H](CCC(N)=O)NC(=O)[C@H](Cc4ccccc4)NC(=O)[C@H](C)NC(=O)[C@H](C)NC(=O)[C@H](CCC(=O)O)NC(=O)[C@H](CC(=O)O)NC3=O)NC1=O)CCCN2C(C)=O (stereo partly drawn) [I-527, Ac-PL3-Asp-Ile-B5-Asp-Glu-Ala-Ala-Phe-Gln-S8-2OMeF-BztA-Gln-NH2] |
| 63 | 63 | 2.395 | – | CC[C@H](C)[C@@H]1NC(=O)[C@H](CC(=O)O)NC(=O)[C@]2(CC=CCCCC3(CCCC=CCCCCCC[C@@](C)(C(=O)N[C@@H](Cc4ccccc4OC)C(=O)N[C@@H](Cc4csc5ccccc45)C(=O)N[C@@H](CCC(N)=O)C(N)=O)NC(=O)[C@H](CCC(N)=O)NC(=O)[C@H](Cc4ccccc4)NC(=O)[C@H](C)NC(=O)[C@H](C)NC(=O)[C@H](CCC(=O)O)NC(=O)[C@H](CC(=O)O)NC3=O)NC1=O)CCCN2C(C)=O (stereo partly drawn) [I-528, Ac-PL3-Asp-Ile-B5-Asp-Glu-Ala-Ala-Phe-Gln-S8-2OMeF-BztA-Gln-NH2] |
| 43 | 43 | 2.45 | – | CC(=O)N1CCC[C@]12CC=CCCCC1(CCCC=CCCCCCC[C@@](C)(C(=O)N[C@@H](Cc3ccccc3)C(=O)N[C@@H](Cc3csc4ccccc34)C(=O)N[C@@H](CCC(N)=O)C(N)=O)NC(=O)[C@H](CC(N)=O)NC(=O)[C@H](Cc3ccccc3)NC(=O)[C@H](C)NC(=O)[C@H](C)NC(=O)[C@H](CC(=O)O)NC(=O)[C@H](CC(=O)O)NC1=O)NC(=O)[C@H](CCC(C)C)NC(=O)[C@H](CC(=O)O)NC2=O (stereo partly drawn) [I-547, Ac-PL3-Asp-hLeu-B5-Asp-Asp-Ala-Ala-Phe-Asn-S8-Phe-BztA-Gln-NH2] |
| 71 | 71 | 2.291 | – | CC[C@H](C)[C@@H]1NC(=O)[C@H](CC(=O)O)NC(=O)[C@]2(CC=CCCCC3(CCCC=CCCCCCC[C@@](C)(C(=O)N[C@@H](Cc4ccccc4OC)C(=O)N[C@@H](Cc4csc5ccccc45)C(=O)N[C@@H](CCC(N)=O)C(N)=O)NC(=O)[C@H](CC(N)=O)NC(=O)[C@H](Cc4ccccc4)NC(=O)[C@H](C)NC(=O)[C@H](C)NC(=O)[C@H](CC(=O)O)NC(=O)[C@H](CC(=O)O)NC3=O)NC1=O)CCCN2C(C)=O (stereo partly drawn) [I-549, Ac-PL3-Asp-Ile-B5-Asp-Asp-Ala-Ala-Phe-Asn-S8-2OMeF-BztA-Gln-NH2] |
| 15.5 | 15.5 | 2.334 | – | CC[C@H](C)[C@@H]1NC(=O)[C@H](CC(=O)O)NC(=O)[C@]2(CC=CCCCC3(CCCC=CCCCCCC[C@@](C)(C(=O)N[C@@H](Cc4ccsc4)C(=O)N[C@@H](Cc4csc5ccccc45)C(=O)N[C@@H](CCC(N)=O)C(N)=O)NC(=O)[C@H](CC(N)=O)NC(=O)[C@H](Cc4ccccc4)NC(=O)[C@H](C)NC(=O)[C@H](C)NC(=O)[C@H](CC(=O)O)NC(=O)[C@H](CC(=O)O)NC3=O)NC1=O)CCCN2C(C)=O (stereo partly drawn) [I-552, Ac-PL3-Asp-Ile-B5-Asp-Asp-Ala-Ala-Phe-Asn-S8-3Thi-BztA-Gln-NH2] |
